Data published in patent publication US5891895A, “Hydroxypyridine derivatives their production and use” (Takeda Chemical Industries, Ltd., priority 1996, dated 1999).

Assays:
rat aorta preparations [1] = test: Vasorelaxant effect on rat aorta preparations: constriction induced by potassium chloride (KCl); assay type: cell-based, Male Wistar rats; conditions: KCl (80 mM), read-out: constriction inhibitory ratio
Protocol: (§1) Method: Male Wistar rats (10 to 13 weeks old) were used. After exsanguination, the aorta was isolated. Aortic rings (5 mm long) were prepared and then suspended in a bath filled with oxygenated (95% O2 -5% CO2) Krebs solution (36° C.). One end of each ring preparation was fixed and the other end was connected to a tension transducer (Nihon Kohden), and tension of the ring preparation was measured. After an equilibration period of one hour, TEA (30-45 mM) and BaCl2 (0.3 mM) were added in the bath to produce vasoconstriction. After the contractions reached a steady state (after about 15 min.), each test compound was added and its relaxant effect was investigated.
(§2) Vasorelaxant effect on rat aorta preparations
Effect on constriction induced by potassium chloride (KCl)
Method: This experiment was performed using KCl (80 mM) instead of TEA and BaCl2 used in Experimental Example 1. Apart from this, the procedures were substantially the same as in Experimental Example 1.

rat aorta preparations [2] = test: Vasorelaxant effect on rat aorta preparations: contractions induced by tetraethyl ammonium chloride (TEA) and barium chloride (BaCl2); assay type: cell-based, Male Wistar rats; conditions: TEA (30-45 mM) and BaCl2 (0.3 mM), read-out: constriction inhibitory ratio
Protocol: as §2
Effects on contractions induced by tetraethyl ammonium chloride (TEA) and barium chloride (BaCl2)
as §1

coronary blood flow = test: Coronary blood flow-increasing effect in anesthetized dogs (administration into the coronary artery); assay type: in vivo; conditions: 30 μg/dog into the coronary artery, anesthetized beagle dogs
Protocol: Coronary blood flow-increasing effect in anesthetized dogs (administration into the coronary artery)
Method: After beagle dogs (10 to 12 kg) were anesthetized with pentobarbital, the chest was opened under artificial respiration. A bypass fitted with an electromagnetic flowmeter (Nihon Kohden) was prepared between the left coronary artery and the left carotid artery, and the coronary blood flow was measured. Each test compound was dissolved in 50% polyethylene glycol in physiological saline, 50% DMF in physiological saline or DMF for administration (30 μg/dog) into the coronary artery through the bypass.
Results: The greatest percentage change (% of basal flow) and duration (expressed as half-time (T1/2) in which the effect is reduced to half) are shown in Table 14.

[3] = test system: spontaneously hypertensive rats (SHR); test: Antihypertensive effect in rats (SHR); assay type: in vivo; conditions: 0.3 mg/kg orally
Protocol: (§3) Antihypertensive effect in rats
(§4) Method: 23 to 27-week-old spontaneously hypertensive rats (SHR) or normotensive rats (Wistar-Kyoto rats (WKY)) were anesthetized with pentobarbital (60 mg/kg, i.p.). A polyethylene catheter filled with physiological saline containing 20% heparin was inserted into the left femoral artery and left in place. The other end of the catheter was tunneled subcutaneously to the back and fixed there. After one night, the animals were used in the experiment in the fasting state. Blood pressure was recorded on an ink-writing recorder through the arterial catheter via a pressure transducer. Blood pressure was estimated from flood pressure waves recorded on the recorder. After the blood pressure was stabilized, the test compounds (vehicle (0.5% methylcellulose, […]) or Compound 16 (0.3 mg/kg)) were administered orally.
(§5) Results: The changes in blood pressure and heart rate after administration of the test compounds are given as % of pretreatment basal values (percentage changes) in FIGS. 1 and 2. All values are presented as means±standard error.

[4] = test system: normotensive rats (Wistar-Kyoto rats (WKY)); test: Antihypertensive effect in rats (WKY); assay type: in vivo; conditions: 0.3 mg/kg orally
Protocol: as §3, §4, §5

SMILES | inhibition at 0.1 µM (rat aorta preparations [1]) [%] | inhibition at 0.3 µM (rat aorta preparations [1]) [%] | inhibition at 0.1 µM (rat aorta preparations [2]) [%] | inhibition at 0.3 µM (rat aorta preparations [2]) [%] | duration (T1/2), half-time in which the effect is reduced to half (coronary blood flow) [min] | greatest percentage change (coronary blood flow) | inhibition at 1 µM (rat aorta preparations [1]) [%] | inhibition at 1 µM (rat aorta preparations [2]) [%] | duration of antihypertensive effect [3] | effect on heart rate [3] | onset of antihypertensive effect after administration [3] [h] | greatest change in blood pressure (antihypertensive effect) ([3]; % of pretreatment basal values) [%] | effect on blood pressure [4] | effect on heart rate [4]
CC(C)(C)O/N=C(/c1cccc(Br)c1)c1ncccc1O [Compound 1, (Z)-2-(3-bromo-α-t-butoxyiminobenzyl)-3-hydroxypyridine] | 0 | 0 | 57 | 59 | 6.7 | 133 % of basal flow |  |  |  |  |  |  |  | 
CC(C)(C)O/N=C(/c1cccc(Br)c1)c1c(O)ccc[n+]1[O-] [Compound 3, (Z)-2-(3-bromo-α-t-butoxyiminobenzyl)-3-hydroxypyridine 1-oxide] |  | 0 |  | 47 | 24.4 | 155 % of basal flow | 2 | 97 |  |  |  |  |  | 
CC(C)(C)O/N=C(/c1ccc(Cl)cc1)c1c(O)ccc[n+]1[O-] [Compound 7, (Z)-2-[α-(t-butoxyimino)-4-chlorobenzyl]-3-hydroxypyridine N-oxide] |  |  |  | 2 | 18.6 | 71 % of basal flow | 0 | 72 |  |  |  |  |  | 
CC(C)(C)O/N=C(/c1ccc(Cl)c(Cl)c1)c1c(O)ccc[n+]1[O-] [Compound 11, (Z)-2-[α-(t-butoxyimino)-3,4-dichlorobenzyl]-3-hydroxypyridine N-oxide] |  |  |  | 49 | 30.5 | 66 % of basal flow | 0 | 63 |  |  |  |  |  | 
CC(C)(C)O/N=C(/c1cc(Cl)cc(Cl)c1)c1ncccc1O [Compound 13, (Z)-2-[α-(t-butoxyimino)-3,5-dichlorobenzyl]-3-hydroxypyridine] |  |  |  | 21 |  |  | 4 | 53 |  |  |  |  |  | 
CC(C)(C)O/N=C(/c1ccc(F)c(Br)c1)c1ncccc1O [Compound 16, (Z)-2-(3-bromo-α-t-butoxyimino-4-fluorobenzyl)-3-hydroxypyridine] | 4 |  | 87 |  | 43.5 | 136 % of basal flow |  |  | long duration | little effect | 2 | 18 | no effect | no effect
CC(C)(C)O/N=C(/c1cccc(C(F)(F)F)c1)c1ncccc1O [Compound 21, (Z)-2-[α-(t-butoxyimino)-3-trifluoromethylbenzyl]-3-hydroxypyridine] |  | 1 |  | 45 |  |  | 8 | 100 |  |  |  |  |  | 
CC(C)(C)O/N=C(/c1cccc([N+](=O)[O-])c1)c1ncccc1O [Compound 23, (Z)-2-[α-(t-butoxyimino)-3-nitrobenzyl]-3-hydroxypyridine] |  | 0 | 4 | 56 | 5.3 | 134 % of basal flow | 0 | 76 |  |  |  |  |  | 
CC(C)(C)N/N=C(\c1cccc(Br)c1)c1ncccc1O [Compound 27, (E)-2-(3-bromo-α-t-butylhydrazinobenzyl)-3-hydroxypyridine] | 0 | 0 | 25 | 100 | 74.6 | 77 % of basal flow |  |  |  |  |  |  |  | 
